# Settings: 20% solution in D2O/EtOH-d6 (1:1), stabilized with 200 ppm 2,6-di-tbutyl-4-methylphenol, stored at 37° C., standing time 2 months
# Method: In connection with the present invention, compounds which are stable in water or in mixtures of water and water-miscible solvents in a concentration of approx. 20 wt.-% and a pH value of approx. 2.0 at 37° C. for at least 6 weeks, i.e. hydrolyze to less than 1%, are described as hydrolysis-stable.
# A 20% solution of MAPA, stabilized with 200 ppm 2,6-di-tbutyl-4-methylphenol, was prepared in D2O/EtOH-d6 (1:1), stored at 37° C. and ^1H-NMR-spectroscopically examined. After a standing time of 2 months, no changes in the ^1H-NMR-spectrum were able to be detected.
smiles,measurement,value
C=C(COCCP(=O)(O)O)C(=O)Oc1c(C)cc(C)cc1C [MAPA],Hydrolysis stability: changes in the 1H-NMR spectrum,no changes
